The data set in a line: NaBH₄ hydrolysis half-life vs. pH. It is filed as physicochemical. The following applies: for HALF-LIFE: hydrolysis. As for the experimental part: The pH flow profile becomes significant when related to the hydrolysis rate of the NaBH₄. Referring to the Table set forth below, the half-life of NaBH₄ is 3000 times longer at a pH of 6.0 compared to a pH of 2.5. Therefore, if the BOROL solution is added to a process stream having a pH of 2.5, the extent of the hydrolysis of the NaBH₄ is greater than if the BOROL solution and NaOH are added first to said process stream having a pH of 6.2 and the pH of said process stream is increased to 13.0, where the rate of hydrolysis of NaBH₄ is very slow (42.6 days). TABLE
TEMPERATURE = 25°C (77°F) LOG₁₀ (t½ ) = pH - (0.034 T - 1.92) [formula] t = MINUTES T = °K

Structures are written as SMILES.

Experimental findings from patent EP0377521B1, “High yield sodium hydrosulfite generation” (MORTON INTERNATIONAL, INC., priority 1989, dated 1990) are described below.

Take `[BH4-].[Na+]` [NaBH₄, sodium borohydride]: the HALF-LIFE runs as follows: (pH 2.5, 25°C (77°F)) 2e-06 min; (pH 4.0, 25°C (77°F)) 6.17e-05 min; (pH 5.0, 25°C (77°F)) 0.000617 min; (pH 5.5, 25°C (77°F)) 0.002 min; (pH 6.0, 25°C (77°F)) 0.00617 min; (pH 6.5, 25°C (77°F)) 0.02 min. For the same compound, the HALF-LIFE is, setting by setting: (pH 7.0, 25°C (77°F)) 0.0617 min; (pH 8.0, 25°C (77°F)) 0.613 min; (pH 9.0, 25°C (77°F)) 6.1 min; (pH 10.0, 25°C (77°F)) 61 min; (pH 12.0, 25°C (77°F)) 6190 min; (pH 13.0, 25°C (77°F)) 61300 min. Further, under “ratio of hydrolysis half-lives, pH 6.0 vs pH 2.5”, the “half-life at a pH of 6.0 compared to a pH of 2.5” value is recorded as 3000 times longer.
